Patent publication US6916820B1, “Neurotrophic substituted pyrimidines” (Krenitsky Pharmaceuticals, Inc., priority 1999, dated 2005)

Key:
[1] = system: choline acetyltransferase (ChAT) activity in PC12 cells; assay: Choline acetyltransferase (ChAT) assay in NGF-treated PC12 cells (screen for NGF-like activity); type: cell-based, rat; details: 3 days incubation with test compound, compared with NGF alone
Description: Cultured PC12 cells (rat adrenal pheochromocytoma from ATCC) have receptors for NGF. Responses include promotion of neurite outgrowth and elevation of choline acetyltransferase (ChAT) (L. A. Green and A. S. Tischler, Cell Neurobiol., 3, 373 (1982)).
The following assay is modified from that described in H L White and P W Scates, Neurochem. Res., 16, 63 (1991). PC12 cells were cultured at 37° C. in RPMI supplemented with HEPES buffer, pH 7.5 (to 10 mM), fetal bovine serum, horse serum, glutamine, penicillin, streptomycin and non-essential amino acids. Cultures were split 1:3 every 3 to 4 days. Exponentially dividing cells were plated into fresh medium on collagen-coated 12-well plastic dishes (10^5 cells/well). After allowing one day for cell attachment, the medium was replaced with low serum medium, with or without test compounds with each condition in triplicate. The medium may contain up to 0.2% ethanol, which was used as a solvent for most compounds tested. Cells were examined for morphological changes using an Olympus IMT-2 inverted research microscope. After 3 days incubation with test compounds, medium was removed and replaced with 0.2 ml of lysis and ChAT assay mixture. The plates were incubated at 37° C. for 2 hours and then placed into a freezer at −20° C. […]
The assay mixture contained 100 mM phosphate, pH 7.4, 0.1% NP-40, 150 mM NaCl, 1.5 mM choline, 10 mM EDTA, 0.1 mM eserine, 0.1 mM acetyl-coenzyme A and about 0.5 uCi (40-70 Ci/mol) [14C]acetyl-coenzyme A in each ml of mixture. […] The vials were centrifuged at 3000 rpm (max.=16 cm) for 15 minutes and then counted in a Beckman LS6500 scintillation counter. […]
The following data were obtained for representative compounds of the present invention which (1) increased the activity of choline acetyltransferase ChAT), (2) enhanced NGF-stimulated neurite outgrowth and/or (3) potentiated or appeared additive with the action of NGF itself. The concentration at which the test compound doubled the ChAT activity over the activity with NGF alone (no test compound) was recorded as the EC2x value: […]

melting point [°C] | Structure (SMILES) | EC2x (concentration at which the test compound doubled the ChAT activity over the activity with NGF alone) [1] [µM]
155 to 156 | Cl.Nc1ncc(Oc2ccc(Cl)cc2)c(N[C@H]2CC[C@H](O)CC2)n1 | –
154 to 155 | Nc1ncc(Oc2ccc(Cl)cc2)c(N[C@H]2CC[C@H](O)CC2)n1 [Example 3, 2-amino-5-(4-chlorophenoxy)-4-(trans-4-hydroxycyclohexylamino)pyrimidine] | 0.4
138 to 145 | Cl.Nc1ncc(Oc2ccc(Cl)cc2Cl)c(N[C@H]2CC[C@H](O)CC2)n1 [Example 5, 2-amino-5-(2,4-dichlorophenoxy)-4-(trans-4-hydroxycyclohexylamino)pyrimidine hydrochloride] | 1.2
– | Cl.Nc1ncc(Oc2ccc(Cl)cc2)c(NC2CCC(=O)CC2)n1 [Example 10, 2-amino-5-(4-chlorophenoxy)-4-(4-oxocyclohexylamino)pyrimidine hydrochloride] | 0.7
